Measured values: patent publication US20120064102A1, “PEPTIDE INDUCING XAGE-1B-SPECIFIC IMMUNE REACTION AND UTILIZATION OF SAME” (NATIONAL UNIVERSITY CORPORATION OKAYAMA UNIVERSITY, priority 2009, published 2012)

B1: XAGE-1b protein: XAGE-1b protein (81 amino acids, SEQ ID. No. 1) synthesized by GL Biochem; cancer/testis antigen (protein, listed as Homo sapiens)
chain: MESPKKKNQQLKVGILHLGSRQKKIRIQLRSQCATWKVICKSCISQTPGINLDLGSGVKVKIIPKEEHCKMPEAGEEQPQV

Experiments:
[1] = system: CD8-positive T cell clones (TK-f01 2H10); assay: antigen presentation by MHC class I, cross-presentation (IFN-γ ELISA); assay type: cell-based, human
Method: Further, it was confirmed that NY-ESO-1 f peptide is presented as an antigen also by MHC class I, i.e., cross-presented (FIG. 29). Specifically, in a non-serum AIM-V culture medium containing 1 μM of NY-ESO-192-100 short-chain peptide, 1 μM of NY-ESO-191-110 f peptide or 10 μg/ml of recombinant protein, dendritic cells (5×10^5 cells/ml) were cultured and pulsed with antigen, in the presence/absence of 10 μM of cytochalasin B. The cells were washed and then CD8-positive T cell clones (TK-f01 2H10) (5×10^3 cells) were cultured at 37° C. for 24 hours with the dendritic cells (5×10^3 cells) pulsed with the antigens. The amount of production of IFN-γ by antigen stimulation was measured by ELISA.

[2] = system: NY-ESO-1-specific CD4-positive T cell clones (E-8A1); assay: antigen presentation by MHC class II (IFN-γ ELISA); assay type: cell-based, human
Method: Specifically, NY-ESO-1-specific CD4-positive T cell clones (E-8A1) were subjected to IFN-γ ELISA by use of self-EBV-B cells as antigen-presenting cells, in the presence of peptide NY-ESO-1 f peptide at a temperature condition of 4° C. or 37° C.
“E/T ratio” of the horizontal axis of FIG. 28 indicates a ratio of co-culturing between Effector (T cell) and Target (EBV-B cell).

U937 = assay: intake of FAM-conjugated NY-ESO-1 f peptide into antigen-presenting cell; assay type: cell-based, human; settings: 3 hours after the start of culturing; U937 primed with 20 ng/ml PMA
Method: Initially, the inventors of the present invention analyzed the point (A). Specifically, U937, which is a human monocytic leukemia strain, was subjected to priming using 20 ng/ml of PMA, and then cultured with NY-ESO-1 f peptide conjugated with FAM™. Localization of NY-ESO-1 f peptide in U937 was confirmed by observing fluorescence of FAM™ which is a fluorescent pigment.
FIG. 27 is a view illustrating that NY-ESO-1 f peptide was taken into an antigen-presenting cell (U937).

[3] = system: XAGE-1b-specific IgG antibody; assay: ELISA of XAGE-1b-specific IgG antibody in serums; assay type: binding, human
Method: Full-length XAGE-1b protein (carbonic acid buffer, pH 9.6) with a concentration of 1 μg/ml was immobilized overnight on a 96 well plate (NUNC) at 4° C., and then the plate was washed with a washing solution (PBS/0.1% TWEEN). To the washed plate, 5 FCS/PBS was added and the plate was subjected to blocking at 37° C. for 1 hour. After the blocking, serum diluted 100 times, 300 times, 900 times, or 2700 times was added and the resultant was caused to react at 37° C. for 2 hours. Subsequently, the resultant was washed with the washing solution, and then peroxidase-binding goat anti-human IgG antibody (diluted 5000 times) (Jackson ImmunoResearch Laboratories, Inc.) was added to the resultant and this mixture was caused to react at 37° C. for 1 hour. After the reaction, the resultant was washed with the washing solution and a substrate solution to which hydrogen peroxide was added (solution obtained by dissolving orthophenylendiamine in 0.05M citric acid buffer (pH 5.0)) was added to stain the resultant. After the staining, 6N sulfuric acid was added to stop the reaction, and absorbance (wavelength of 490 nm) thereof was measured using a microplate reader (Bio-Rad Laboratories, Inc.).
Whether or not humoral immune responses to XAGE-1b were present were examined for 200 cases of subjects suffering from non-small-cell lung cancer (including 69 cases of subjects suffering from lung adenocarcinoma in the late stage) who had consulted Kawasaki Medical School Hospital from 2005 to 2009, and for 50 cases of normal healthy subjects serving as controls.
Specifically, whether or not XAGE-1b-specific IgG antibody was present in serums sampled from lung cancer patients was examined by ELISA.
Among them, the lung cancer patients of the very-strong zone, the strong zone, and the weak zone were regarded as serum antibody titer-positive patients.

[4] = system: XAGE-1b-specific CD4-positive T cells (4C187-1); assay: natural epitope recognition by CD4 clone T-cells 4C187-1; assay type: cell-based, human; settings: clone 4C187-1
[5] = system: HLA-B*3501-restricted CD8-positive T cell clones (8C187-4); assay: IFN-γ ELISA with CD8-positive T cell clones 8C187-4; assay type: cell-based, human; settings: clone 8C187-4
Source text: FIG. 19 is a view showing that peptide 21-36 is a peptide recognized by T cell clones (8C187-4).
As shown in (c) of FIG. 19, when CD8-positive T cell clones (8C187-4) obtained from KLU 187 were stimulated with EBV-B cells expressing HLA-B*3501 as antigen-presenting cells, production of XAGE-1b-specific IFN-γ were detected.

| Molecule | effect of cytochalasin B on reaction ([1]; 10 μM of cytochalasin B) | antigen presentation by MHC class I ([1]; dendritic cells pulsed with 1 μM peptide) | effect of low temperature on reaction ([2]; low temperature (4° C.) blocks intake) | antigen presentation by MHC class II ([2]; self-EBV-B cells as antigen-presenting cells, 4° C. or 37° C.) | intake into antigen-presenting cells (U937) | antibody reaction to XAGE-1b ([3]; 50 cases of normal healthy subjects) | XAGE-1b serum antibody titer-positive cases ([3]; Non-small-cell lung cancer (n = 200)) | XAGE-1b serum antibody titer-positive cases ([3]; Stage 3B/4 lung adenocarcinoma (n = 69)) | reaction on stimulation with self-dendritic cells pulsed with antigen [4] | reaction on stimulation with self-dendritic cells pulsed with antigen [5] |
| --- | --- | --- | --- | --- | --- | --- | --- | --- | --- | --- |
| NY-ESO-1 f peptide: long-chain peptide made up of 20 amino acids of NY-ESO-1 (YLAMPFATPMEAELARRSLA) | decrease in a reaction to CD8-positive T cells | presented as an antigen by MHC class I | decrease in a reaction to CD4-positive T cells | presented as an antigen by MHC class II | taken into the cells |  |  |  |  |  |
| B1 |  |  |  |  |  | no antibody reaction to XAGE-1b was observed | 20 (10.0%) n (%) | 13 (18.8%) n (%) | production of antigen-specific IFN-γ | production of antigen-specific IFN-γ |
